Measured values: article PMC10242237 (Scientific Reports, 2023)
Read-outs that look alike come from different tables or passages of the source.

Key:
SARS-CoV-2 PL^pro [1] = biological target: T1, SARS-CoV-2 PL^pro (Severe acute respiratory syndrome coronavirus 2, UniProt P0DTD1); experiment: biochemical; details: for inhibition at 1 µM: 0.5 h, read-out: inhibition [%] SARS-CoV-2 PLpro
SARS-CoV-2 M^pro = SARS-CoV-2 M^pro (Severe acute respiratory syndrome coronavirus 2, UniProt P0DTD1); experiment: biochemical; details: for inhibition at 0.1 µM: read-out: inhibition [%] SARS-CoV-2 Mpro, [I] = 100 nM; for inhibition at 1 µM: read-out: inhibition [%] SARS-CoV-2 Mpro, [I] = 1 µM
[2] = biological target: SARS-CoV-2 nsp14 N7-MTase (Severe acute respiratory syndrome coronavirus 2, UniProt P0DTD1); experiment: Py-FLINT fluorescence assay of nsp14 N7-MTase; assay type: biochemical; details: for SARS-CoV-2 nsp14 Hill coefficient p: four-parameter dose-response fit, variable Hill slope
Description: To determine their IC50 values, we used the previously described fluorescence assay Py-FLINT[42],[67]. To this end, the Py-FLINT probe (1 μM) was incubated with SAM cosubstrate (20 μM), nsp14 enzyme (40 nM), and half-log inhibitor dilutions in 50 mM Tris–HCl pH 7.5 buffer at 30 °C. The reaction progress was monitored in 96-well cells by registering the fluorescence intensity signal with a 1-min time interval. Using the initial reaction course, the values of initial rates V were calculated. To calculate IC50 values from the obtained dependences of initial rates versus inhibitor concentration, we fitted a four-parameter dose–response equation, assuming a variable Hill slope p (Table 3, Fig. S2).
The Py-FLINT probe (1 μM) was incubated with SAM cosubstrate (20 μM), nsp14 (40 nM), and an inhibitor (half-log dilutions logCinh < − 2.5; 2 >). […] Initial rates V were calculated by fitting a linear curve to the first 10 points (10 min). To the obtained dependences V(Cinh) the following four-parameter dose–response equation was fitted:1 V/V0=A1+A2-A1/1+Cinh/IC50^p, where A1 and A2 are the bottom and top asymptotes, respectively; Cinh the inhibitor concentration; p is the Hill coefficient, and V/V0 is the ratio of the initial reaction rate with the inhibitor to that without the inhibitor. For curve fitting and IC50 calculations we used GraphPad Prism software.

A549 human cell line = details: cited from earlier work
Vero E6 cells = experiment: Cytotoxicity assay (XTT) in Vero E6 cells; assay type: cell-based; details: Vero E6 cells, three days, XTT
Description: (§1) Cytotoxicity was evaluated by incubating two-fold serial dilutions of each compound with Vero E6 cells.

SARS-CoV-2 [3] = experiment: Cytopathic effect (CPE)-based anti-SARS-CoV-2 assay in Vero E6 cells; details: read-out: EC50 CPE, three days, XTT
SARS-CoV-2 [4] = experiment: RNA reduction-based anti-SARS-CoV-2 assay (RT-qPCR) in Vero E6 cells; details: read-out: EC50 RNA, two days, RT-qPCR of medium
[5] = Cytotoxicity assay (XTT) in Vero E6 cells; assay type: cell-based; details: African green monkey
Description: as §1

M^pro [6] = details: Protease-Glo luciferase and Flip-GFP assays; cited from earlier work
M^pro [7] = details: in vitro FRET substrate assay, recombinant enzyme; cited from earlier work
SARS-CoV-2 PL^pro [8] = biological target: T1, SARS-CoV-2 PL^pro; details: Flip-GFP assay, 293T-ACE2 cells; cited from earlier work
[9] = phase I clinical trial, humans; cited from earlier work
[10] = [E] = 100 nM, [I] = 1 µM, [S] = 10 µM

Structure (SMILES) | inhibition at 1 µM (SARS-CoV-2 PL^pro [1]) [%] | inhibition at 0.1 µM (SARS-CoV-2 M^pro) [%] | inhibition [%] SARS-CoV-2 PLpro (SARS-CoV-2 PL^pro [1]; [10]) [%] | inhibition at 1 µM (SARS-CoV-2 M^pro) [%] | EC50 (SARS-CoV-2 [3]) [µM] | other results
O=c1c2ccccc2[se]n1-c1ccccc1F [Compound 1] | 54.6 ± 2 | 72.3 ± 2.3 |  |  |  | 
O=c1c2ccccc2[se]n1-c1ccccc1Cl [Compound 2] | 56.7 ± 4.1 | 66.5 ± 3.4 |  |  |  | 
O=c1c2ccccc2[se]n1-c1ccccc1Br [Compound 3] | 59.2 ± 4.5 | 73.3 ± 4.5 |  |  |  | SARS-CoV-2 nsp14 Hill coefficient p [2]: 3.12 ± 0.47
Cc1ccccc1-n1[se]c2ccccc2c1=O [Compound 4] |  | 63.4 ± 2.7 | 55.8 ± 5.2 |  |  | 
O=c1c2ccccc2[se]n1-c1ccccc1C(F)(F)F [Compound 5] |  | 62.8 ± 0.7 | 44.4 ± 2.5 |  |  | 
O=c1c2ccccc2[se]n1-c1ccccc1[N+](=O)[O-] [Compound 6] |  | 38.5 ± 2.3 | 46.6 ± 2.3 |  |  | 
O=c1c2ccccc2[se]n1-c1ncccc1O [Compound 7, 2-(3-hydroxypyridin-2-yl)-1,2-benzisoselenazol-3(2H)-one] | 84.4 ± 2.1 | 55.9 ± 4.1 |  |  |  | SARS-CoV-2 nsp14 Hill coefficient p [2]: 4.08 ± 1.33; melting point: 228 to 229 °C (dec.)
COc1cccc(-n2[se]c3ccccc3c2=O)c1 [Compound 8] | 52.6 ± 1.4 | 59.9 ± 4.8 |  |  |  | 
O=c1c2ccccc2[se]n1-c1ccc(C(F)(F)F)cc1 [Compound 9] | 48 ± 3.6 | 71 ± 9.3 |  |  |  | 
O=c1c2ccccc2[se]n1-c1ccc([N+](=O)[O-])cc1 [Compound 10] | 56.2 ± 4.2 | 82.9 ± 1.7 |  |  |  | SARS-CoV-2 nsp14 Hill coefficient p [2]: 1.73 ± 0.35
O=c1c2ccccc2[se]n1-c1ccc(I)cc1 [Compound 11] | 48 ± 2.1 | 71.6 ± 5.6 |  |  |  | melting point: 203 to 204 °C
CC(=O)c1ccc(-n2[se]c3ccccc3c2=O)cc1 [Compound 12] |  | 55.1 ± 2.7 | 59.0 ± 3.0 |  |  | 
CC(=O)Nc1ccc(-n2[se]c3ccccc3c2=O)cc1 [Compound 13] | 57.3 ± 1.8 | 62 ± 1 |  |  |  | 
O=c1c2ccccc2[se]n1-c1ccc(F)cc1F [Compound 14] |  | 64.8 | 58.1 ± 3.9 |  |  | 
O=c1c2ccccc2[se]n1-c1ccc(Cl)cc1F [Compound 15] |  | 77.1 ± 2.8 | 55.7 ± 3.1 |  |  | 
COc1ccc(-n2[se]c3ccccc3c2=O)c(OC)c1 [Compound 16] | 64.3 ± 3.8 | 59 ± 1.5 |  |  |  | SARS-CoV-2 nsp14 Hill coefficient p [2]: 2.36 ± 0.32; melting point: 238 to 240 °C; toxicity in A549 cells, times lower in comparison with ebselen (A549 human cell line): 10 times
O=c1c2ccccc2[se]n1-c1cc(Cl)ccc1F [Compound 17, 2-(5-chloro-2-fluorophenyl)-1,2-benzisoselenazol-3(2H)-one] | 47.2 ± 1 | 82.3 ± 2.1 |  |  |  | SARS-CoV-2 nsp14 Hill coefficient p [2]: 2.15 ± 0.28
O=c1c2ccccc2[se]n1-c1cc(Cl)ccc1Cl [Compound 18] |  | 72.3 ± 3.1 | 47.8 ± 0.9 |  |  | 

Structure (SMILES) | inhibition at 1 µM (SARS-CoV-2 PL^pro [1]) [%] | inhibition at 0.1 µM (SARS-CoV-2 M^pro) [%] | inhibition [%] SARS-CoV-2 PLpro (SARS-CoV-2 PL^pro [1]; [10]) [%] | inhibition at 1 µM (SARS-CoV-2 M^pro) [%] | EC50 (SARS-CoV-2 [3]) [µM] | other results
Cc1ccc(Cl)c(-n2[se]c3ccccc3c2=O)c1 [Compound 19] |  | 61.8 ± 0.5 | 57.6 ± 3.0 |  |  | 
Cc1ccc(Cl)cc1-n1[se]c2ccccc2c1=O [Compound 20] | 62.6 ± 1.7 | 69 ± 3.5 |  |  |  | 
Cc1c(Cl)cccc1-n1[se]c2ccccc2c1=O [Compound 21] | 58.3 ± 2.4 | 70.6 ± 1.4 |  |  |  | melting point: 282 to 283 °C
Cc1cc(-n2[se]c3ccccc3c2=O)ccc1Cl [Compound 22] | 43.1 ± 2.1 | 72.2 ± 0.8 |  |  |  | 
COc1ccc(-n2[se]c3ccccc3c2=O)cc1OC [Compound 23] | 58 ± 1.9 | 60.6 ± 0.4 |  |  |  | 
O=C(Nc1ccccc1F)c1ccccc1[Se][Se]c1ccccc1C(=O)Nc1ccccc1F [Compound 25] |  | 33 ± 5.5 | 82.1 ± 2.7 | 100 | 3.1 ± 0.36 | IC50 [2]: 0.12 ± 0.01 µM; CC50 (Vero E6 cells): ~60 µM; EC50 (SARS-CoV-2 [4]): 1.9 ± 0.15 µM
O=C(Nc1ccccc1C(F)(F)F)c1ccccc1[Se][Se]c1ccccc1C(=O)Nc1ccccc1C(F)(F)F [Compound 26] |  | 34.5 ± 4.4 | 61.3 ± 2.2 | 78.1 ± 2.4 | 37 ± 2.4 | IC50 [2]: 1.82 ± 0.32 µM; CC50 (Vero E6 cells): > 50 µM
O=C(Nc1cccc(F)c1)c1ccccc1[Se][Se]c1ccccc1C(=O)Nc1cccc(F)c1 [Compound 27, bis[2-(3-fluorophenylcarbamoyl)]phenyl diselenide] |  | 44 ± 4.1 | 90.1 ± 5.4 | 100 | 0.7 ± 0.13 | IC50 [2]: 0.18 ± 0.04 µM; CC50 (Vero E6 cells): > 50 µM; EC50 (SARS-CoV-2 [4]): 1.5 ± 0.15 µM
COc1cccc(NC(=O)c2ccccc2[Se][Se]c2ccccc2C(=O)Nc2cccc(OC)c2)c1 [Compound 28] |  | 37 ± 4.3 | 81.9 ± 0.8 | 100 | 7.6 ± 0.71 | IC50 [2]: 0.58 ± 0.04 µM; CC50 (Vero E6 cells): > 50 µM; EC50 (SARS-CoV-2 [4]): 2.7 ± 0.23 µM
O=C(Nc1ccc(C(F)(F)F)cc1)c1ccccc1[Se][Se]c1ccccc1C(=O)Nc1ccc(C(F)(F)F)cc1 [Compound 29] |  | 14 ± 2.4 | 61.3 ± 3.4 | 100 | 29 ± 3.5 | IC50 [2]: 4.5 ± 1.3 µM; CC50 (Vero E6 cells): > 50 µM
O=C(Nc1ccc(Cl)cc1F)c1ccccc1[Se][Se]c1ccccc1C(=O)Nc1ccc(Cl)cc1F [Compound 30] |  | 27.4 | 75.1 ± 0.4 | 49.6 ± 2.7 | 1.1 ± 0.15 | IC50 [2]: 11.5 ± 1.4 µM; CC50 (Vero E6 cells): > 50 µM; EC50 (SARS-CoV-2 [4]): 1.9 ± 0.1 µM
COc1ccc(NC(=O)c2ccccc2[Se][Se]c2ccccc2C(=O)Nc2ccc(OC)cc2OC)c(OC)c1 [Compound 31] |  | 50 ± 1 | 76.6 ± 2.4 | 100 | 7.1 ± 0.84 | IC50 [2]: 0.91 ± 0.1 µM; CC50 (Vero E6 cells): > 50 µM; EC50 (SARS-CoV-2 [4]): 2.8 ± 0.31 µM
Cc1ccc(Cl)cc1NC(=O)c1ccccc1[Se][Se]c1ccccc1C(=O)Nc1cc(Cl)ccc1C [Compound 32] |  | 55.4 ± 3.8 | 72.4 ± 1.7 | 100 | 22 ± 2.5 | IC50 [2]: 12.1 ± 1.1 µM; CC50 (Vero E6 cells): > 50 µM
Cc1cc(NC(=O)c2ccccc2[Se][Se]c2ccccc2C(=O)Nc2ccc(Cl)c(C)c2)ccc1Cl [Compound 33] |  | 48.7 ± 5.4 | 72.1 ± 3.2 | 92 ± 0.3 | 20 ± 1.4 | IC50 [2]: 1.06 ± 0.05 µM; CC50 (Vero E6 cells): > 50 µM; EC50 (SARS-CoV-2 [4]): 1.7 ± 0.08 µM
O=C(Nc1c(F)cccc1Cl)c1ccccc1[Se][Se]c1ccccc1C(=O)Nc1c(F)cccc1Cl [Compound 34] |  | 32 ± 2.1 | 60.2 ± 1.7 | 43.1 ± 3 | 9.3 ± 0.92 | IC50 [2]: 2.1 ± 0.58 µM; CC50 (Vero E6 cells): > 50 µM; EC50 (SARS-CoV-2 [4]): 3.4 ± 0.2 µM
O=c1c2ccccc2[se]n1-c1ccccc1 [Ebselen, 2-phenylbenzisoselenazol-3(2H)-one, reference compound] |  |  |  | 100 | 34 ± 7.9 | inhibition at 1 µM (SARS-CoV-2 PL^pro [1]; [10]): 65.4 ± 2.4%; inhibition at 0.1 µM (SARS-CoV-2 M^pro; [E] = 100 nM, [I] = 100 nM, [S] = 50 µM): 57.6 ± 1.3%; SARS-CoV-2 nsp14 Hill coefficient p [2]: 2.74 ± 0.47; CC50 at 3 days [5]: ~30 µM; M^pro inhibition in cells (M^pro [6]): no M^pro inhibition; M^pro inhibition in presence of reducing agent (M^pro [7]): does not inhibit; SARS-CoV-2 PL^pro inhibition in cells (SARS-CoV-2 PL^pro [8]): no SARS-CoV-2 PL^pro inhibition; tolerated single dose [9]: 1600 mg
CCC(CC)COC(=O)[C@H](C)N[P@](=O)(OC[C@H]1O[C@@](C#N)(c2ccc3c(N)ncnn23)[C@H](O)[C@@H]1O)Oc1ccccc1 [Remdesivir, reference compound] |  |  |  |  | 0.1 ± 0.01 | CC50 at 3 days ([5]; Vero E6 cells, three days, XTT, read-out: CC50): > 50 µM; EC50 (SARS-CoV-2 [4]): 0.66 ± 0.06 µM
